Data set [1] is described as follows: The drug is tested on Z-002 corresponding to rabbit gut metagenome with ENA study accession number: PRJEB37062 and ENA sample accession number: ERS12561802 for biotransformation under anaerobic condition. The drug concentrations were measured over 9 timepoints collected between 0 and 24 hours of incubation by liquid-chromatography-coupled mass spectrometry (LC–MS). The note with it: 2 µM.

A short description of data set [2]: The drug is tested on Z-003 corresponding to pig gut metagenome with ENA study accession number: PRJEB37062 and ENA sample accession number: ERS12561803 for biotransformation under anaerobic condition. The drug concentrations were measured over 9 timepoints collected between 0 and 24 hours of incubation by liquid-chromatography-coupled mass spectrometry (LC–MS). The note with it: 2 µM.

The nature of data set [3]: The drug is tested on Z-017 corresponding to mouse gut metagenome with ENA study accession number: PRJEB37062 and ENA sample accession number: ERS12561816 for biotransformation under anaerobic condition. The drug concentrations were measured over 9 timepoints collected between 0 and 24 hours of incubation by liquid-chromatography-coupled mass spectrometry (LC–MS). The note with it: 2 µM.

For data set [4] the following is noted: human gut metagenome, 24 h, 2 µM.
Data set [5] is described as follows: The drug is tested on Z-014 corresponding to rat gut metagenome with ENA study accession number: PRJEB37062 and ENA sample accession number: ERS12561814 for biotransformation under anaerobic condition. The drug concentrations were measured over 9 timepoints collected between 0 and 24 hours of incubation by liquid-chromatography-coupled mass spectrometry (LC–MS). The conditions noted are these: 2 µM.

The conditions of data set [6]: human gut metagenome, 24 h, 2 µM. This is another data set of the same source.
A short description of data set [7]: The drug is tested on WLS-006 corresponding to human gut metagenome with ENA study accession number: PRJEB37062 and ENA sample accession number: ERS12561741 for biotransformation under anaerobic condition. The drug concentrations were measured over 9 timepoints collected between 0 and 24 hours of incubation by liquid-chromatography-coupled mass spectrometry (LC–MS). The conditions noted are these: 2 µM.

For data set [8] the following is noted: human gut metagenome, 24 h, 2 µM. This is another data set of the same source.
Data set [9] is described as follows: The drug is tested on WLS-220 corresponding to human gut metagenome with ENA study accession number: PRJEB37062 and ENA sample accession number: ERS12561769 for biotransformation under anaerobic condition. The drug concentrations were measured over 9 timepoints collected between 0 and 24 hours of incubation by liquid-chromatography-coupled mass spectrometry (LC–MS). The note with it: 2 µM.

The nature of data set [10]: The drug is tested on WLS-086 corresponding to human gut metagenome with ENA study accession number: PRJEB37062 and ENA sample accession number: ERS12561752 for biotransformation under anaerobic condition. The drug concentrations were measured over 9 timepoints collected between 0 and 24 hours of incubation by liquid-chromatography-coupled mass spectrometry (LC–MS). The note with it: 2 µM.

The conditions of data set [11]: human gut metagenome, 24 h, 2 µM. This is another data set of the same source.
Data set [12] is described as follows: The drug is tested on Z-018 corresponding to pig gut metagenome with ENA study accession number: PRJEB37062 and ENA sample accession number: ERS12561817 for biotransformation under anaerobic condition. The drug concentrations were measured over 9 timepoints collected between 0 and 24 hours of incubation by liquid-chromatography-coupled mass spectrometry (LC–MS). The note with it: 2 µM.

The conditions of data set [13]: human gut metagenome, 24 h, 2 µM. This is another data set of the same source.
The conditions of data set [14]: human gut metagenome, 24 h, 2 µM. The source holds these as a separate data set.
Data set [15] in a line: The drug is tested on Z-019 corresponding to rat gut metagenome with ENA study accession number: PRJEB37062 and ENA sample accession number: ERS12561818 for biotransformation under anaerobic condition. The drug concentrations were measured over 9 timepoints collected between 0 and 24 hours of incubation by liquid-chromatography-coupled mass spectrometry (LC–MS). The conditions noted are these: 2 µM.

Data set [16] is described as follows: The drug is tested on Z-008 corresponding to metagenome with ENA study accession number: PRJEB37062 and ENA sample accession number: ERS12561808 for biotransformation under anaerobic condition. The drug concentrations were measured over 9 timepoints collected between 0 and 24 hours of incubation by liquid-chromatography-coupled mass spectrometry (LC–MS). The note with it: 2 µM.

The conditions of data set [17]: human gut metagenome, 24 h, 2 µM. This is another data set of the same source.
For data set [18] the following is noted: human gut metagenome, 24 h, 2 µM. The source holds these as a separate data set.
Data set [19] is described as follows: The drug is tested on Z-026 corresponding to metagenome with ENA study accession number: PRJEB37062 and ENA sample accession number: ERS12561825 for biotransformation under anaerobic condition. The drug concentrations were measured over 9 timepoints collected between 0 and 24 hours of incubation by liquid-chromatography-coupled mass spectrometry (LC–MS). The note with it: 2 µM.

A short description of data set [20]: The drug is tested on Z-028 corresponding to mouse gut metagenome with ENA study accession number: PRJEB37062 and ENA sample accession number: ERS12561827 for biotransformation under anaerobic condition. The drug concentrations were measured over 9 timepoints collected between 0 and 24 hours of incubation by liquid-chromatography-coupled mass spectrometry (LC–MS). The conditions noted are these: 2 µM.

Here are results for 6 compounds from ChEMBL document CHEMBL5724914, “Linking interpersonal differences in gut microbiota composition and drug biotransformation activity” (2024).

SMILES strings stand for the structures.
Note: call rule not given here.

As to `CCC1(c2ccc(N)cc2)CCC(=O)NC1=O` (stereo unspecified) [AMINOGLUTETHIMIDE], the “Bacterial Biotransformation” value in data set [1], in [2], in [3], in data set [4], in [5] and in [6] was “Compound NOT metabolized” in each case. Besides, the “Bacterial Biotransformation” value in [7] is recorded as “Compound NOT metabolized”; in [8], “Compound NOT metabolized”; in data set [9], “Compound NOT metabolized”; in [10], “Compound NOT metabolized”; in data set [11], “Compound NOT metabolized”; in [12] it was “Compound metabolized”. Moreover, the “Bacterial Biotransformation” value in data set [13], in data set [14], in data set [15], in data set [16], in data set [17] and in [18] was “Compound NOT metabolized” each time.
In the case of `C[C@@H]1CC[C@H]2[C@@H](C)C(=O)O[C@@H]3O[C@@]4(C)CC[C@@H]1[C@]32OO4` [ARTEMISININ], the “Bacterial Biotransformation” value in data set [19], in data set [4], in [5], in data set [6], in [20] and in data set [7] was “Compound metabolized” throughout. Further, the “Bacterial Biotransformation” value in [9], in data set [10], in [11], in data set [12], in data set [15] and in data set [17] was “Compound metabolized” throughout. Moreover, the “Bacterial Biotransformation” value in data set [18] was “Compound metabolized”.
With `CCN(CC)C(=O)/C(C#N)=C/c1cc(O)c(O)c([N+](=O)[O-])c1` [ENTACAPONE], the “Bacterial Biotransformation” value in data set [1], in data set [19], in [2], in data set [3], in [5] and in data set [20] was “Compound metabolized” each time. Also, the “Bacterial Biotransformation” value in data set [8] is “Compound metabolized”; in data set [9] it was “Compound NOT metabolized”; in data set [11], “Compound NOT metabolized”; in data set [12] it was “Compound metabolized”; in [15], “Compound NOT metabolized”; in data set [16], “Compound metabolized”. For the same compound, the “Bacterial Biotransformation” value in data set [18] was “Compound metabolized”.
With `COc1ccccc1N1CCN(CC(O)COc2cccc3ccccc23)CC1` (stereo unspecified) [NAFTOPIDIL], the “Bacterial Biotransformation” value in [1], in data set [2], in [3], in data set [4], in data set [5] and in data set [6] was “Compound NOT metabolized” in each case. For the same compound, the “Bacterial Biotransformation” value in data set [20] was “Compound metabolized”; in [7] it was “Compound NOT metabolized”; in data set [8], “Compound NOT metabolized”; in [9], “Compound NOT metabolized”; in [10] it was “Compound NOT metabolized”; in data set [11], “Compound NOT metabolized”. The “Bacterial Biotransformation” value in data set [12], in data set [13], in [14], in data set [15], in [16] and in data set [17] was “Compound NOT metabolized” throughout. Also, the “Bacterial Biotransformation” value in data set [18] is reported as “Compound NOT metabolized”.
Turning to `Cc1nc2n(c(=O)c1CCN1CCC(c3noc4cc(F)ccc34)CC1)CCCC2` [RISPERIDONE], the “Bacterial Biotransformation” value in data set [1] was “Compound metabolized”; in data set [19] it was “Compound NOT metabolized”; in data set [2], “Compound metabolized”; in data set [3] it was “Compound metabolized”; in data set [4], “Compound metabolized”; in data set [5], “Compound metabolized”. The “Bacterial Biotransformation” value in [6], in data set [20], in [7], in data set [8], in data set [9] and in data set [10] was “Compound metabolized” each time. The “Bacterial Biotransformation” value is listed as “Compound metabolized” in data set [11]; “Compound metabolized” in data set [12]; “Compound metabolized” in data set [13]; “Compound metabolized” in [14]; “Compound NOT metabolized” in data set [15]; “Compound metabolized” in data set [16]. The “Bacterial Biotransformation” value in data set [17] is “Compound NOT metabolized”.
As to `CN(C)CCc1c[nH]c2ccc(Cn3cncn3)cc12.O=C(O)c1ccccc1` [RIZATRIPTAN BENZOATE], the “Bacterial Biotransformation” value in data set [1], in data set [19], in data set [2], in [3], in data set [5] and in data set [6] was “Compound NOT metabolized” each time. For the same compound, the “Bacterial Biotransformation” value in [20], in data set [7], in data set [8], in data set [9], in data set [10] and in data set [11] was “Compound NOT metabolized” throughout. Besides, the “Bacterial Biotransformation” value in data set [12], in data set [13], in data set [14], in data set [15], in data set [16] and in [17] was “Compound NOT metabolized” throughout. Further, in data set [18], the “Bacterial Biotransformation” value is reported as “Compound NOT metabolized”.
